One assay deals with Z-138. Description: cells. Type of assay: functional, cell-based. To be noted: Homo sapiens, Z-138, 72 h.
The next assay has as its system NCI-H460. Description: cells. To be noted: Homo sapiens, NCI-H460, 72 h. Type of assay: functional, cell-based.
The next assay concerns HL-60. Description: cells. The format is functional, cell-based. Particulars: Homo sapiens, HL-60, 72 h.
The subject of another assay is HCT-116. Description: Antiproliferative activity against human HCT-116 cells assessed as inhibition of cell viability measured after 72 hrs by colorimetric MTS viability assay. Particulars: HCT-116, 72 h. The format is functional, cell-based. For orientation: Formazan colour is commonly taken as a measure of viable cells.
In another assay the test system is Rec1. Description: cells. Type of assay: functional, cell-based. To be noted: Homo sapiens, Rec1, 72 h.
Assay [1] in a line: Antiproliferative activity against human HAP1 cells assessed as inhibition of cell viability measured after 72 hrs by colorimetric MTS viability assay. The format is functional, cell-based. Particulars: HAP1, 72 h.
In the next assay the test system is K562. Description: cells. Type of assay: functional, cell-based. To be noted: Homo sapiens, K562, 72 h.
Assay [2] can be described thus: Antiproliferative activity against human DND41 cells assessed as inhibition of cell viability measured after 72 hrs by real-time IncuCyte proliferation analysis. The format is functional, cell-based. To be noted: DND41, 72 h.
A further assay has as its system CAPAN-1. Description: cells. Type of assay: functional, cell-based. To be noted: Homo sapiens, CAPAN-1, 72 h.
The subject of another assay is LN-229. Description: Antiproliferative activity against human LN-229 cells assessed as inhibition of cell viability measured after 72 hrs by colorimetric MTS viability assay. The format is functional, cell-based. Particulars: LN-229, 72 h.
In the next assay the test system is Listeria innocua. Description: Antibacterial activity against Listeria innocua LMG11387 assessed as growth inhibition after 20 hrs by broth microdilution method. Type of assay: functional. On the technique in general: Dilution methods test growth across graded concentrations, often in twofold steps.
For assay [3], the system named is Salmonella enterica subsp. enterica. Description: Antibacterial activity against Salmonella enterica subsp.enterica ATCC13076 assessed as growth inhibition after 20 hrs by broth microdilution method. Type of assay: functional.
Another assay concerns MV4-11. Description: cells. To be noted: Homo sapiens, MV4-11, 72 h. Type of assay: functional, cell-based.
A further assay has as its system Jurkat. Description: cells. The format is functional, cell-based. Particulars: Homo sapiens, 72 h.
Another assay has as its system Staphylococcus aureus. Description: Antibacterial activity against Staphylococcus aureus ATCC65385 assessed as growth inhibition after 20 hrs by broth microdilution method. Type of assay: functional.
Another assay has as its system Escherichia coli. Description: Antibacterial activity against Escherichia coli ATCC47076 assessed as growth inhibition after 20 hrs by broth microdilution method. The format is functional.

Converted amounts (≈) assume the structure as drawn. The source made the active and inactive calls. The rule behind the calls is not given here.

Experimental findings from ChEMBL document CHEMBL4828727, “Antibacterial and antitumoral properties of 1,2,3-triazolo fused triterpenes and their mechanism of inhibiting the proliferation of HL-60 cells” (Eur J Med Chem, 2021) are described below.

Description for CAPAN-1: Antiproliferative activity against human CAPAN-1 cells assessed as inhibition of cell viability measured after 72 hrs by colorimetric MTS viability assay
Description for HL-60: Antiproliferative activity against human HL-60 cells assessed as inhibition of cell viability measured after 72 hrs by real-time IncuCyte proliferation analysis
Description for Jurkat: Cytotoxicity against human Jurkat cells assessed as inhibition of cell viability measured after 72 hrs by real-time IncuCyte proliferation analysis
Description for K562: Antiproliferative activity against human K562 cells assessed as inhibition of cell viability measured after 72 hrs by real-time IncuCyte proliferation analysis
Description for MV4-11: Cytotoxicity against human MV4-11cells assessed as inhibition of cell viability measured after 72 hrs by real-time IncuCyte proliferation analysis
Description for NCI-H460: Antiproliferative activity against human NCI-H460 cells assessed as inhibition of cell viability measured after 72 hrs by colorimetric MTS viability assay
Description for Rec1: Cytotoxicity against human REC1 cells assessed as inhibition of cell viability measured after 72 hrs by real-time IncuCyte proliferation analysis
Description for Z-138: Antiproliferative activity against human Z138 cells assessed as inhibition of cell viability measured after 72 hrs by real-time IncuCyte proliferation analysis

For the compound `CC1(C)CC[C@]2(C(=O)O)CC[C@]3(C)C(=CC[C@@H]4[C@@]5(C)Cc6nnn(Cc7ccc8[nH]ccc8c7)c6C(C)(C)[C@@H]5CC[C@]43C)[C@@H]2C1`, the IC50 in the assay on Z-138 amounted to 10.3 µM; in the assay with NCI-H460, 8.3 µM; in the assay with HL-60 it was 7 µM; in the assay on HCT-116, 12 µM; in the assay on Rec1 it was 2 µM; in assay [1], 3.3 µM. The IC50 with K562 came to 86.1 µM; in [2], 12.1 µM; in the assay on CAPAN-1, 4.1 µM; in the assay with LN-229 it was 37.7 µM; in the assay on MV4-11, 12.8 µM; in the assay with Jurkat it was 3.7 µM. In addition, the MIC50 with Listeria innocua is 193 µg/mL (≈ 317 µM); in assay [3], 33 µg/mL (≈ 54.1 µM); with Staphylococcus aureus it was 95.5 µg/mL (≈ 157 µM); in the assay on Escherichia coli it was 41.6 µg/mL (≈ 68.3 µM).
For `C[C@H]1[C@H](C)CC[C@]2(C(=O)O)CC[C@]3(C)C(=CC[C@@H]4[C@@]5(C)Cc6nnn(Cc7ccc8cc[nH]c8c7)c6C(C)(C)[C@@H]5CC[C@]43C)[C@H]12`, the IC50 in the assay on Z-138 was 10.3 µM; in the assay on NCI-H460 it was 7.9 µM; in the assay with HL-60, 3.3 µM; in the assay on HCT-116, 11 µM; in the assay with Rec1, 4.9 µM; in [1] it was 2.3 µM. In addition, the IC50 in the assay with K562 is 53.7 µM; in [2], 13.9 µM; in the assay with CAPAN-1 it was 2.6 µM; with LN-229, 32.2 µM; in the assay with MV4-11 it was 12.6 µM; in the assay on Jurkat, 5.2 µM. For the same compound, the MIC50 in the assay with Listeria innocua came to 74.4 µg/mL (≈ 122 µM); in the assay with Staphylococcus aureus, 60.5 µg/mL (≈ 99.3 µM). Also, the MIC50 entry (in assay [3]; in the assay on Escherichia coli) was “inactive” in each case.
Consider `C[C@H]1[C@H](C)CC[C@]2(C(=O)O)CC[C@]3(C)C(=CC[C@@H]4[C@@]5(C)Cc6nnn(Cc7cccc8[nH]ccc78)c6C(C)(C)[C@@H]5CC[C@]43C)[C@H]12`, for which the half-inhibitory concentration (IC50) in the assay with Z-138 was 10.1 µM; with NCI-H460, 9.2 µM; in the assay on HL-60, 2.7 µM; in the assay with HCT-116, 15.6 µM; in the assay on Rec1, 2.8 µM; in assay [1] it was 8.8 µM. In addition, the IC50 is greater than 100 µM in the assay on K562; 10.1 µM in [2]; 3.6 µM with CAPAN-1; 63.5 µM in the assay on LN-229; 14.1 µM with MV4-11; 4.1 µM in the assay on Jurkat. The MIC50 in the assay with Listeria innocua was determined as 51.3 µg/mL (≈ 84.2 µM); in the assay with Staphylococcus aureus it was 23.1 µg/mL (≈ 38 µM); with Escherichia coli, 409 µg/mL (≈ 672 µM). Also, in assay [3], the MIC50 entry was “inactive”.
As to `C[C@H]1[C@H](C)CC[C@]2(C(=O)O)CC[C@]3(C)C(=CC[C@@H]4[C@@]5(C)Cc6nnn(CCc7c[nH]c8ccccc78)c6C(C)(C)[C@@H]5CC[C@]43C)[C@H]12`, the IC50 in the assay on Z-138 was 12.2 µM; in the assay on NCI-H460, 8.8 µM; in the assay with HL-60, 5.5 µM; in the assay with HCT-116 it was 10.8 µM; in the assay on Rec1, 2.5 µM; in [1] it was 6.3 µM. Further, the IC50 was 65.9 µM in the assay with K562; 9 µM in [2]; 4.6 µM in the assay with CAPAN-1; 35.1 µM in the assay on LN-229; 9.9 µM in the assay with MV4-11; 3.8 µM with Jurkat. Further, the MIC50 was found to be 118 µg/mL (≈ 189 µM) in the assay on Listeria innocua and 132 µg/mL (≈ 212 µM) with Staphylococcus aureus. For the same compound, the MIC50 result (in assay [3]; in the assay with Escherichia coli) was “inactive” in each case.
For the compound `CC1(C)CC[C@]2(C(=O)O)CC[C@]3(C)C(=CC[C@@H]4[C@@]5(C)Cc6nnn(CCc7c[nH]c8ccccc78)c6C(C)(C)[C@@H]5CC[C@]43C)[C@@H]2C1`, the IC50 was 11.6 µM in the assay with Z-138; 7.6 µM with NCI-H460; 1.5 µM in the assay on HL-60; 11.1 µM in the assay with HCT-116; 2.1 µM in the assay on Rec1; greater than 7.9 µM in assay [1]. The IC50 in the assay on K562 was determined as 52.1 µM; in [2], 9.9 µM; with CAPAN-1, 9.6 µM; in the assay on LN-229, 55.1 µM; in the assay with MV4-11 it was 15.8 µM; in the assay with Jurkat, 4.1 µM. Besides, the results for the MIC50 in the assay with Listeria innocua, with Staphylococcus aureus and in the assay with Escherichia coli were 255 µg/mL (≈ 409 µM), 274 µg/mL (≈ 439 µM) and 387 µg/mL (≈ 622 µM), respectively. For the same compound, in assay [3], the MIC50 result was “inactive”.

One may read the IC50 as the midpoint of a concentration-inhibition curve. What is called MIC50 is the lowest concentration that inhibits either 50% of growth or 50% of the strains tested, depending on the study.
